These compounds were tested on primary neuronal cultures (assay: cAMP assay in primary neuronal cultures). Conditions: primary cultures of cortical neurons; Figure 5.
Format: cell-based, Sprague Dawley rats
Description: • Fig. 1. Graphics of the dose-response corresponding to the HTFR (Homogeneous Time Resolved Fluorescence) assays performed with chromenopyrimidines Example 1, Example 2 and Example 3. A) Competition assay snap-CB1; red ligand used at 100 nM; B) Competition assay snap-CB2; red ligand used at 20 nM. • Fig. 2. cAMP (Cyclic adenosine monophosphate) experiments performed with novel chromenopyrimidines (Example 1, Example 2 and Example 3). A) In HEK293 cells transfected with CB1; B) In HEK293 cells transfected with CB2. • Fig. 3. Graphics of the dose-response corresponding to the MAPK (mitogen-activated protein kinase) experiments performed with novel chromenopyrimidines (Example 1, Example 2 and Example 3). A) In HEK293 cells transfected with CB1; B) In HEK293 cells transfected with CB2. • Fig. 4. Graphics of the dose-response corresponding to the β-arrestin2 recruitment assays performed with Example 1, Example 2 and Example 3. A) In HEK293 cells transfected with CB1; B) In HEK293 cells transfected with CB2. • Fig. 5. Graphics of the dose-response corresponding to the cAMP assays performed with Example 1, Example 2 and Example 3 in neurons. • Fig. 6. Graphics of the dose-response of reference cannabinoids ACEA and anandamide in cAMP and MAPK assays in HEK293-CB1 cells. • Fig. 7. […]
In the present invention, cannabinoid affinity was evaluated using Homogeneous Time Resolved Fluorescence (HTFR) binding assays. Cannabinoid activity was assessed using an array of functional assays including cAMP, MAPK and barrestin2 recruitment in CB1 and CB2 transfected HEK293 cells. […]
Two hours before initiating the experiment, HEK-293T cells medium was replaced by serum-starved DMEM medium. […] Readings were performed after 60 min incubation at 25°. Homogeneous time-resolved fluorescence energy transfer (HTRF) measures were performed using the Lance Ultra cAMP kit (PerkinElmer, Waltham, MA, USA). Fluorescence at 665 nm was analysed on a PHERAstar Flagship microplate reader equipped with an HTRF optical module (BMG Lab technologies, Offenburg, Germany). […]

Compound	cannabinoid agonistic activity in primary neuronal cultures using cAMP assays
CCCCCCC(C)(C)c1cc(O)c2c(c1)OC(C)(C)c1cncnc1-2 [Example 1, 8-(1,1-Dimethylheptyl)-5,5-dimethylchromeno[4,3-d]pyrimidin-10-ol]	cannabinoid agonistic activity
CCCCCCC(C)(C)c1cc(OC)c2c(c1)OC(C)(C)c1cncnc1-2 [Example 2, 8-(1,1-Dimethylheptyl)-10-methoxy-5,5-dimethylchromeno[4,3-d]pyrimidine]	cannabinoid agonistic activity
CCCCCCC(C)(C)c1cc(OCc2ccccc2)c2c(c1)OC(C)(C)c1cncnc1-2 [Example 3, 10-Benzyloxy-8-(1,1-dimethylheptyl)-5,5-dimethylchromeno[4,3-d]pyrimidine]	cannabinoid agonistic activity

Source: patent EP4491627A1, “SYNTHETIC CA[…] ON CHROMENO[…] AND USE THEREOF” (Consejo Superior De Investigaciones Científicas, priority 2023, dated 2025)
